# Reference: patent publication US5162333A, “Aminodiesters of rapamycin” (American Home Products Corporation, priority 1991, dated 1992)
# What was measured:
# [1] = tested on: mixed lymphocyte reaction in popliteal lymph node; assay: popliteal lymph node (PLN) test procedure, in vivo mixed lymphocyte reaction; set-up: species or system mouse (BALB/c donors, C3H mice recipients); details: for PLN (ratio): p.o. daily Day 0 to Day 4, calculation described in b30 (formula not shown)
# Procedure: (§1) Immunosuppressive activity was evaluated in an in vitro standard pharmacological test procedure to measure lymphocyte proliferation (LAF) and in two in vivo standard pharmacological test procedures. The first in vivo procedure was a popliteal lymph node (PLN) test procedure which measured the effect of compounds of this invention on a mixed lymphocyte reaction and the second in vivo procedure evaluated the survival time of a pinch skin graft.
# A mixed lymphocyte reaction (MLR) occurs when lymphoid cells from genetically distinct animals are combined in tissue culture. Each stimulates the other to undergo blast transformation which results in increased DNA synthesis that can be quantified by the incorporation of tritiated thymidine. Since stimulating a MLR is a function of disparity at Major Histocompatibility antigens, an in vivo popliteal lymph node (PLN) test procedure closely correlates to host vs. graft disease. Briefly, irradiated spleen cells from BALB/c donors are injected into the right hind foot pad of recipient C3H mice. The drug is given daily, p.o. from Day 0 to Day 4. On Day 3 and Day 4, tritiated thymidine is given i.p., b.i.d. On Day 5, the hind popliteal lymph nodes are removed and dissolved, and radioactivity counted. The corresponding left PLN serves as the control for the PLN from the injected hind foot. Percent suppression is calculated using the non-drug treated animals as allogenic control. […] Results are expressed by the following ratio: [formula]
# [2] = tested on: thymocyte proliferation (cells from the thymus of normal BALB/c mice, PHA and IL-1); assay: comitogen-induced thymocyte proliferation procedure (LAF); assay type: cell-based; details: for LAF (ratio): calculation described in b29 (formula not shown)
# Procedure: as §1
# Briefly, cells from the thymus of normal BALB/c mice are cultured for 72 hours with PHA and IL-1 and pulsed with tritiated thymidine during the last six hours. […] Cells are harvested and incorporated; radioactivity is determined. Inhibition of lymphoproliferation is assessed in percent change in counts per minute from non-drug treated controls. The results are expressed by the following ratio, or as the IC50, expressed in nM. [formula]
# [3] = tested on: experimental allergic encephalomyelitis model, a model for multiple sclerosis; details: in vivo; cited from earlier work
# [4] = tested on: formation of IgE-like antibodies; details: cited from earlier work
# [5] = tested on: pinch skin graft from male DBA/2 donors transplanted to male BALB/c recipients; assay: survival time of pinch skin graft; assay type: in vivo, mouse (DBA/2 donors; details: intraperitoneally; days to rejection
# Procedure: as §1
# The second in vivo test procedure is designed to determine the survival time of pinch skin graft from male DBA/2 donors transplanted to male BALB/c recipients. The method is adapted from Billingham R. E. and Medawar P. B., J. Exp. Biol. 28:385-402, (1951). Briefly, a pinch skin graft from the donor is grafted on the dorsum of the recipient as a homograft, and an autograft is used as control in the same region. […] Untreated recipients serve as rejection control. The graft is monitored daily and observations are recorded until the graft becomes dry and forms a blackened scab. This is considered as the rejection day. The mean graft survival time (number of days±S.D.) of the drug treatment group is compared with the control group.
# [6] = tested on: organ grafts in histoincompatible rodents; details: cited from earlier work
# Candida albicans = details: particularly against Candida albicans, both in vitro and in vivo; cited from earlier work
SMILES,"Percent suppression in PLN ([1]; 6 mg/kg, p.o., vs non-drug treated allogenic control)","IC50 ([2]; Mus musculus, Thymocyte, read-out: LAF IC50)",effect in experimental allergic encephalomyelitis model [3],inhibition of the formation of IgE-like antibodies [4],Skin Graft (mean graft survival time) [5],survival time of organ grafts [6],antifungal activity (Candida albicans),PLN (ratio) [1],LAF (ratio) [2]
"CO[C@H]1C[C@@H]2CC[C@@H](C)[C@@](O)(O2)C(=O)C(=O)N2CCCC[C@H]2C(=O)O[C@H]([C@H](C)C[C@@H]2CC[C@@H](O)[C@H](OC)C2)CC(=O)[C@H](C)/C=C(\C)[C@@H](O)[C@@H](OC)C(=O)[C@H](C)C[C@H](C)/C=C/C=C/C=C/1C [Rapamycin, rapamycin]",86%,8.7 nM,effective,effectively inhibited the formation of IgE-like antibodies,12.0 ± 1.7 days ± SD,prolong survival time of organ grafts,"antifungal activity, particularly against Candida albicans, both in vitro and in vivo",,
"CO[C@H]1C[C@@H]2CC[C@@H](C)[C@@](O)(O2)C(=O)C(=O)N2CCCC[C@H]2C(=O)O[C@H]([C@H](C)C[C@@H]2CC[C@@H](OC(=O)C[C@H](NC(=O)OCc3ccccc3)C(=O)O[C@@H]3CC[C@@H](C[C@@H](C)[C@@H]4CC(=O)[C@H](C)/C=C(\C)[C@@H](O)[C@@H](OC)C(=O)[C@H](C)C[C@H](C)/C=C/C=C/C=C(\C)[C@@H](OC)C[C@@H]5CC[C@@H](C)[C@@](O)(O5)C(=O)C(=O)N5CCCC[C@H]5C(=O)O4)C[C@H]3OC)[C@H](OC)C2)CC(=O)[C@H](C)/C=C(\C)[C@@H](O)[C@@H](OC)C(=O)[C@H](C)C[C@H](C)/C=C/C=C/C=C/1C [Example 2, Rapamycin 42-42'-diester with N-[(phenylmethoxycarbonyl)]-L-aspartic acid]",,,,,10.7 ± 0.2 days ± SD,,,0.45,0.32
"CO[C@H]1C[C@@H]2CC[C@@H](C)[C@@](O)(O2)C(=O)C(=O)N2CCCC[C@H]2C(=O)O[C@H]([C@H](C)C[C@@H]2CC[C@@H](OC(=O)CC[C@H](NC(=O)OCc3ccccc3)C(=O)O[C@@H]3CC[C@@H](C[C@@H](C)[C@@H]4CC(=O)[C@H](C)/C=C(\C)[C@@H](O)[C@@H](OC)C(=O)[C@H](C)C[C@H](C)/C=C/C=C/C=C(\C)[C@@H](OC)C[C@@H]5CC[C@@H](C)[C@@](O)(O5)C(=O)C(=O)N5CCCC[C@H]5C(=O)O4)C[C@H]3OC)[C@H](OC)C2)CC(=O)[C@H](C)/C=C(\C)[C@@H](O)[C@@H](OC)C(=O)[C@H](C)C[C@H](C)/C=C/C=C/C=C/1C [Example 1, Rapamycin-42,42'-diester with N-[(phenylmethoxy)carbonyl]-L-glutamic acid]",,,,,10.2 ± 0.4 days ± SD,,,0.45,0.53
